Experimental findings from PubChem BioAssay (NCI) are described below.

Among the test systems are ACHN renal; COLO 205 colon; EKVX NSCLC; HCT-15 colon; M14 melanoma; OVCAR-8 ovarian; SW-620 colon; UACC-62 melanoma; U251 CNS; DU-145 prostate.
Assay in all cases: NCI anticancer screen, dose series, 48 h

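Tested at 5 concentrations; 48 h exposure; 96-well plates; endpoints linearly interpolated, else capped at highest concentration. TGI: concentration producing complete growth inhibition.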

For `C[C@H](CCC1SC1(C)C)C1CCC2(C)C3=C(CC[C@]12C)[C@@]1(C)CC[C@H](O)C(C)(C)C1CC3` (stereo partly drawn), the TGI in the experiment with ACHN renal, in the experiment with COLO 205 colon, in the experiment with EKVX NSCLC, in the experiment on HCT-15 colon, in the experiment on M14 melanoma and with OVCAR-8 ovarian was over 100 µM throughout. Also, the TGI in the experiment with SW-620 colon and in the experiment with UACC-62 melanoma was over 100 µM in each case.
Regarding `C/C(N=NS(=O)(=O)c1ccc([N+](=O)[O-])cc1)=C1\C=CC=CN1O`, the TGI in the experiment on ACHN renal, with EKVX NSCLC, in the experiment on HCT-15 colon, in the experiment on M14 melanoma, in the experiment on OVCAR-8 ovarian and with SW-620 colon was over 100 µM throughout. For the same molecule, the TGI in the experiment with U251 CNS and in the experiment on UACC-62 melanoma was over 100 µM each time.
As to `NC(=S)N1N=C2c3ccccc3CC[C@H]2[C@@H]1c1ccc(Cl)cc1`, the TGI is over 100 µM with ACHN renal; 34.8 µM with COLO 205 colon; over 100 µM in the experiment on EKVX NSCLC; over 100 µM in the experiment with HCT-15 colon; over 100 µM with M14 melanoma; over 100 µM in the experiment on OVCAR-8 ovarian. For the same molecule, the TGI in the experiment with SW-620 colon, with U251 CNS and in the experiment with UACC-62 melanoma was over 100 µM in each case.
Regarding `O=c1[nH]c(=O)n(COCc2ccccc2)cc1Nc1ccc(Br)cc1`, the TGI in the experiment with ACHN renal, in the experiment on COLO 205 colon, in the experiment with DU-145 prostate, in the experiment on EKVX NSCLC, in the experiment on HCT-15 colon and in the experiment on M14 melanoma was over 100 µM throughout. The TGI with SW-620 colon, with U251 CNS and with UACC-62 melanoma was over 100 µM in each case.
Consider `C=C1C(=O)O[C@H]2C[C@@H]1[C@@H](O)[C@H](O)[C@@H](C)CCCC(C)=CCC[C@@]2(C)O`, for which the TGI in the experiment on ACHN renal is 27.8 µM; with COLO 205 colon, 28.2 µM; with DU-145 prostate, over 100 µM; in the experiment with EKVX NSCLC, over 100 µM; with HCT-15 colon, over 100 µM; in the experiment on M14 melanoma, 29.8 µM. Further, the TGI with U251 CNS was 64.5 µM; with UACC-62 melanoma, 49.2 µM.
Take `Cc1cc2nc3c(C#N)c4c(c(-c5ccc(Cl)cc5)n3c2cc1C)CCC4`: the TGI with ACHN renal stood at 59.5 µM; with COLO 205 colon, 39.1 µM; in the experiment on DU-145 prostate, 44 µM; in the experiment on EKVX NSCLC, 54.4 µM; in the experiment on HCT-15 colon it was 70.3 µM; with M14 melanoma, 32.7 µM. Besides, the TGI is over 100 µM in the experiment on SW-620 colon, 78.4 µM with U251 CNS and 33.9 µM with UACC-62 melanoma.
For `CC(C)=CC[C@]12CCN(C)[C@H]1N(S(=O)(=O)c1ccccc1)c1ccccc12`, the TGI is over 100 µM in the experiment with ACHN renal; over 100 µM in the experiment on DU-145 prostate; over 63.9 µM in the experiment on EKVX NSCLC; over 100 µM in the experiment with HCT-15 colon; over 100 µM in the experiment on OVCAR-8 ovarian; over 100 µM in the experiment on SW-620 colon. The figures for the TGI in the experiment on U251 CNS and in the experiment on UACC-62 melanoma were over 58.2 µM and over 62 µM, respectively.
On to `Cn1cc(C(=O)c2ccccc2)cc(C(=O)c2ccccc2)c1=O`, for which the TGI with ACHN renal, in the experiment on COLO 205 colon, in the experiment with EKVX NSCLC, with HCT-15 colon, in the experiment on M14 melanoma and with OVCAR-8 ovarian was over 100 µM in each case. Also, the TGI in the experiment on SW-620 colon, in the experiment on U251 CNS and in the experiment with UACC-62 melanoma was over 100 µM throughout.
As to `NC(Cc1ccc2nc3c4ccccc4c(=O)cc-3oc2c1)C(=O)O` (stereo not drawn), the TGI in the experiment with ACHN renal, with COLO 205 colon, in the experiment on DU-145 prostate, in the experiment with EKVX NSCLC, in the experiment on HCT-15 colon and in the experiment on M14 melanoma was over 100 µM each time. For the same molecule, the TGI in the experiment with SW-620 colon, with U251 CNS and in the experiment on UACC-62 melanoma was over 100 µM in each case.
For `CCn1c(CCl)nc2c1C(=O)c1ccccc1C2=O`, the TGI in the experiment on ACHN renal was 13.2 µM; in the experiment with DU-145 prostate, 9.02 µM; in the experiment with EKVX NSCLC it was 6.44 µM; with HCT-15 colon, 3.19 µM; in the experiment with M14 melanoma it was 3.22 µM; with OVCAR-8 ovarian, 2.95 µM. Besides, the TGI was 2.75 µM in the experiment with SW-620 colon, 3.12 µM with U251 CNS and 3.14 µM in the experiment on UACC-62 melanoma.
Take `CC(C)(NC(=O)OCc1ccccc1)C(=O)OC(=O)C(C)(C)NC(=O)OCc1ccccc1`: the TGI with ACHN renal, in the experiment on COLO 205 colon, in the experiment on EKVX NSCLC, in the experiment with HCT-15 colon, in the experiment with M14 melanoma and in the experiment on OVCAR-8 ovarian was over 100 µM in each case. Besides, the TGI in the experiment on SW-620 colon, in the experiment on U251 CNS and in the experiment with UACC-62 melanoma was over 100 µM each time.
Turning to `CNc1ncnc2c1nc(NC1CCCC1)n2C1OC(CO)C(O)C1O` (stereo not drawn), the TGI with ACHN renal, with COLO 205 colon, in the experiment on DU-145 prostate, in the experiment with HCT-15 colon, in the experiment on M14 melanoma and in the experiment with OVCAR-8 ovarian was over 100 µM each time. The TGI in the experiment on SW-620 colon, in the experiment with U251 CNS and with UACC-62 melanoma was over 100 µM each time.
As to `C#CC(O)/C=C/CCCCCCC#CC/C=C\CC#CCCCCCCCCC(O)C#C` (stereo not drawn), the TGI in the experiment on ACHN renal worked out at 29.5 µM; in the experiment with COLO 205 colon, 7.41 µM; in the experiment with DU-145 prostate, 24.1 µM; in the experiment on EKVX NSCLC, 10.3 µM; in the experiment with HCT-15 colon, 10.4 µM; in the experiment on OVCAR-8 ovarian, 5.11 µM. Also, the values for the TGI with SW-620 colon, with U251 CNS and with UACC-62 melanoma were 14.2 µM, over 55.8 µM and 23 µM, respectively.
Turning to `C#CCN(Cc1ccc2nc(-c3ccccc3)c(N)nc2c1)c1cc(OC)c(OC)c(OC)c1`, the TGI was 80.7 µM in the experiment on ACHN renal; 42.8 µM in the experiment with COLO 205 colon; over 100 µM in the experiment with EKVX NSCLC; over 100 µM with HCT-15 colon; 93.7 µM in the experiment on M14 melanoma; over 100 µM in the experiment with OVCAR-8 ovarian. Also, the TGI with SW-620 colon was over 100 µM; in the experiment with U251 CNS, over 100 µM; in the experiment with UACC-62 melanoma it was 63.7 µM.
As to `O=c1[nH]cnc2c(COCCO)c[nH]c12`, the TGI with ACHN renal, with COLO 205 colon, in the experiment with EKVX NSCLC, with HCT-15 colon, in the experiment with M14 melanoma and in the experiment with OVCAR-8 ovarian was over 100 µM throughout. Moreover, the TGI with SW-620 colon, in the experiment with U251 CNS and in the experiment with UACC-62 melanoma was over 100 µM each time.
For `O=C(O)c1nc2ccc(C(F)(F)F)cc2nc1Nc1ccc(F)cc1`, the TGI in the experiment with ACHN renal is over 100 µM; with COLO 205 colon, 44.1 µM; in the experiment on DU-145 prostate, 85 µM; with EKVX NSCLC, 73.9 µM; in the experiment on HCT-15 colon, 70.2 µM; with OVCAR-8 ovarian it was 83.8 µM. Moreover, the results for the TGI with SW-620 colon, with U251 CNS and in the experiment with UACC-62 melanoma were 82.2 µM, over 100 µM and 27.9 µM, respectively.
On to `Cc1nc2cc(Nc3ccccc3C(=O)O)ccc2s1`, for which the TGI in the experiment with ACHN renal, with COLO 205 colon, in the experiment on HCT-15 colon, in the experiment with M14 melanoma, with OVCAR-8 ovarian and with SW-620 colon was over 100 µM in each case. The TGI in the experiment with U251 CNS and in the experiment on UACC-62 melanoma was over 100 µM throughout.
`CCn1c2ccccc2c2c(-c3ccccc3)cc3c(c21)C(=O)N(c1ccccc1)C3=O`: the TGI with ACHN renal, in the experiment on COLO 205 colon, in the experiment with EKVX NSCLC, with HCT-15 colon, with M14 melanoma and with OVCAR-8 ovarian was over 100 µM each time. In addition, the TGI in the experiment on SW-620 colon, in the experiment on U251 CNS and in the experiment with UACC-62 melanoma was over 100 µM throughout.
On to `Cn1cc(S(=O)(=O)NC(=O)Nc2ccc(Cl)cc2)c(=O)c2ccc(F)cc21`, for which the TGI in the experiment on ACHN renal, in the experiment on COLO 205 colon, in the experiment on DU-145 prostate, in the experiment on EKVX NSCLC, in the experiment with HCT-15 colon and with OVCAR-8 ovarian was over 100 µM each time. Moreover, the TGI is over 100 µM in the experiment with SW-620 colon, over 100 µM with U251 CNS and 63.4 µM in the experiment on UACC-62 melanoma.
Turning to `Nc1nc(Cl)c(Cl)c(NCC2(O)CCC2)n1`, the TGI with ACHN renal, with DU-145 prostate, in the experiment with EKVX NSCLC, with HCT-15 colon, in the experiment on OVCAR-8 ovarian and with SW-620 colon was over 100 µM throughout. Further, the TGI in the experiment with U251 CNS and in the experiment with UACC-62 melanoma was over 100 µM in each case.
For the molecule `COc1cc(C(C)O)c[n+](CCC2CNc3ccccc32)c1` (stereo not drawn), the TGI in the experiment on ACHN renal, with COLO 205 colon, with EKVX NSCLC, in the experiment on HCT-15 colon, in the experiment with M14 melanoma and with OVCAR-8 ovarian was over 100 µM throughout. The TGI in the experiment on SW-620 colon, in the experiment with U251 CNS and in the experiment on UACC-62 melanoma was over 100 µM in each case.
With `CC1=C(C)CC2(C=C(C(C)(C)C)C(=O)C(C(C)(C)C)=C2)SC1`, the TGI was 32.1 µM in the experiment with COLO 205 colon; over 100 µM in the experiment with DU-145 prostate; 36.9 µM in the experiment on EKVX NSCLC; 99.4 µM in the experiment on M14 melanoma; 41.1 µM with SW-620 colon; 29.9 µM with U251 CNS. This molecule also came in with a TGI in the experiment with UACC-62 melanoma of 95.6 µM.
`[N-]=[N+]=CC(=O)OCCCCl`: the TGI in the experiment with ACHN renal, in the experiment on COLO 205 colon, with DU-145 prostate, in the experiment with EKVX NSCLC, with HCT-15 colon and with SW-620 colon was over 100 µM in each case. The TGI with U251 CNS and in the experiment on UACC-62 melanoma was over 100 µM throughout.
